This note sets out measurements from ChEMBL document CHEMBL2150981, “Discovery and optimization of benzotriazine di-N-oxides targeting replicating and nonreplicating Mycobacterium tuberculosis” (J Med Chem, 2012).

Values after ≈ are worked out from the molar mass of the structure shown. Where only a bound is given, the exact number is not on record here.

The subject of series [1] is Mycobacterium tuberculosis. Briefly: Antitubercular activity against Mycobacterium tuberculosis H37Rv isolate SRI after 5 days by resazurin-based microplate assay. It is filed as functional. The settings on record: 120 h. (In general: Alamar Blue is a resazurin reagent that responds to reducing activity.)
Series [2] deals with Mycobacterium tuberculosis. Briefly: Antitubercular activity against Mycobacterium tuberculosis H37Rv isolate ITR after 7 days by luminescence spectrometry. It is filed as functional. The settings on record: 168 h.
In the next series the test system is Vero. As to the kind of experiment: Cytotoxicity against african green monkey Vero cells after 72 hrs by CellTiterGlo assay. The settings on record: chlorocebus sabaeus, vero, 72 h. A general note: ATP-based viability assays read luminescence as a measure of living cells.
In series [3] the test system is Mycobacterium tuberculosis. Briefly: Antitubercular activity against Mycobacterium tuberculosis H37Rv incubated for 10 days in anaerobic condition followed by 48 hrs incubation in aerobic condition by LORA assay. The series is classed as functional.
A short description of series [4]: Selectivity index, ratio of CC50 for Vero cells to MIC90 for Mycobacterium tuberculosis H37Rv isolate SRI. It is filed as functional.

On to `COC(=O)/C=C/n1ccnc1[N+](=O)[O-]`, for which the MIC90 (as a rule, an inhibitory concentration at the 90% level, which refers to growth in some studies and to a panel of isolates in others) in series [1] turned out to be 10 µg/mL (≈ 50.7 µM); in series [2] it was 29 µg/mL (≈ 147 µM); in series [3], 3.3 µg/mL (≈ 16.7 µM). For the same compound, the half-maximal cytotoxic concentration (CC50) (usually the concentration that lowers cell viability or growth by half) in the series on Vero came to 16 µg/mL (≈ 81.2 µM). Moreover, in series [4], the “Selectivity Index” value came to 1.6.

As for `CSc1c(C)[n+]([O-])c2ccccc2[n+]1[O-]`, the MIC90 in series [1] was found to be 10 µg/mL (≈ 45 µM); in series [2], 28 µg/mL (≈ 126 µM); in series [3], 9.4 µg/mL (≈ 42.3 µM). Further, in the series with Vero, the 50% cytotoxic concentration (CC50) is over 16 µg/mL. Also, the “Selectivity Index” value in series [4] is reported as over 1.6.

Take `COCCNC(=O)c1ccc2c(c1)[n+]([O-])c(C(C)=O)c(C)[n+]2[O-]`: the MIC90 in series [1] is 10 µg/mL (≈ 31.3 µM); in series [2], 27 µg/mL (≈ 84.6 µM); in series [3], over 32 µg/mL. Besides, the 50% cytotoxic concentration (CC50) in the series on Vero was over 16 µg/mL. Besides, the “Selectivity Index” value in series [4] is listed as over 1.6.

As to `[O-][n+]1nc(NC2CCCCCC2)[n+]([O-])c2ccccc21`, the MIC90 in series [1] is 2.5 µg/mL (≈ 9.11 µM); in series [2] it was 1.6 µg/mL (≈ 5.83 µM); in series [3] it was 0.5 µg/mL (≈ 1.82 µM). Also, the CC50 in the series with Vero worked out at 7.9 µg/mL (≈ 28.8 µM). The “Selectivity Index” value in series [4] turned out to be 3.2.

On to `CCCC(C)Nc1n[n+]([O-])c2ccccc2[n+]1[O-]` (stereo not given), for which the MIC90 in series [1] was determined as 5 µg/mL (≈ 20.1 µM); in series [2] it was 1.9 µg/mL (≈ 7.65 µM); in series [3], 0.99 µg/mL (≈ 3.99 µM). This compound also returned a 50% cytotoxic concentration (CC50) with Vero of 26 µg/mL (≈ 105 µM). Moreover, the “Selectivity Index” value in series [4] came to 5.3.

Turning to `[H][C@]12C[C@]3([H])C[C@]([H])(C1)[C@H](Nc1n[n+]([O-])c4ccccc4[n+]1[O-])[C@]([H])(C2)C3`, the MIC90 came to 2.5 µg/mL (≈ 8 µM) in series [1], 1.9 µg/mL (≈ 6.08 µM) in series [2] and 2.3 µg/mL (≈ 7.36 µM) in series [3]. This compound showed a CC50 in the series on Vero of 7.3 µg/mL (≈ 23.4 µM). Also, the “Selectivity Index” value in series [4] is reported as 2.9.

Consider `COc1cc2c(cc1C)[n+]([O-])nc(N[C@@H]1C[C@H]3CC[C@@H]1C3)[n+]2[O-]`, for which the results for the MIC90 in series [1], in series [2] and in series [3] were 5 µg/mL (≈ 15.8 µM), 5.6 µg/mL (≈ 17.7 µM) and 3.5 µg/mL (≈ 11.1 µM), respectively. The compound further returned a half-maximal cytotoxic concentration (CC50) with Vero of over 50 µg/mL. In addition, the “Selectivity Index” value in series [4] is over 10.

`O=S1(=O)CCN(c2n[n+]([O-])c3cc4c(cc3[n+]2[O-])CCC4)CC1`: the figures for the MIC90 in series [1], in series [2] and in series [3] were 5 µg/mL (≈ 14.9 µM), 15 µg/mL (≈ 44.6 µM) and 30 µg/mL (≈ 89.2 µM), respectively. The compound further showed a CC50 in the series on Vero of 17 µg/mL (≈ 50.5 µM). In addition, the “Selectivity Index” value in series [4] came out at 3.4.

On to `CS(=O)(=O)N1CCN(c2n[n+]([O-])c3cc4c(cc3[n+]2[O-])CCC4)CC1`, for which the MIC90 was 5 µg/mL (≈ 13.7 µM) in series [1], 13 µg/mL (≈ 35.6 µM) in series [2] and 15 µg/mL (≈ 41 µM) in series [3]. For the same compound, in the series with Vero, the half-maximal cytotoxic concentration (CC50) was over 50 µg/mL. Further, the “Selectivity Index” value in series [4] is reported as over 10.

For the compound `CCc1n[n+]([O-])c2ccccc2[n+]1[O-]`, the MIC90 in series [1] was determined as 5 µg/mL (≈ 26.2 µM); in series [2] it was 3.7 µg/mL (≈ 19.4 µM); in series [3], 0.97 µg/mL (≈ 5.07 µM). This compound also gave a CC50 in the series with Vero of 38 µg/mL (≈ 199 µM). Besides, the “Selectivity Index” value in series [4] is listed as 7.6.

On to `NNC(=O)c1ccncc1` [ISONIAZID], for which the MIC90 in series [1] is 0.06 µg/mL (≈ 0.438 µM); in series [2], 0.091 µg/mL (≈ 0.664 µM); in series [3], over 20 µg/mL. The same compound gave a CC50 with Vero of over 50 µg/mL. The “Selectivity Index” value in series [4] is given as over 830.

`O=C1CN(/N=C/c2ccc([N+](=O)[O-])o2)C(=O)N1` [NITROFURANTOIN]: the MIC90 in series [1] stood at 16 µg/mL (≈ 67.2 µM); in series [2], 28 µg/mL (≈ 118 µM); in series [3], 32 µg/mL (≈ 134 µM). This compound gave a CC50 in the series with Vero of 23 µg/mL (≈ 96.6 µM). In series [4], the “Selectivity Index” value worked out at 1.1.

For the compound `CO[C@H]1/C=C/O[C@@]2(C)Oc3c(C)c(O)c4c(O)c(c(/C=N/N5CCN(C)CC5)c(O)c4c3C2=O)NC(=O)/C(C)=C\C=C\[C@H](C)[C@H](O)[C@@H](C)[C@@H](O)[C@@H](C)[C@H](OC(C)=O)[C@@H]1C` [RIFAMPIN], the MIC90 in series [1] was found to be 0.003 µg/mL (≈ 0.00365 µM); in series [2], 0.041 µg/mL (≈ 0.0498 µM); in series [3] it was 2 µg/mL (≈ 2.43 µM). Moreover, the 50% cytotoxic concentration (CC50) in the series with Vero was over 50 µg/mL. Also, the “Selectivity Index” value in series [4] was over 15000.

In the case of `Nc1n[n+]([O-])c2ccccc2[n+]1[O-]` [TIRAPAZAMINE], the results for the MIC90 in series [1], in series [2] and in series [3] were 5 µg/mL (≈ 28.1 µM), 3.7 µg/mL (≈ 20.8 µM) and 7.3 µg/mL (≈ 41 µM), respectively. Besides, the 50% cytotoxic concentration (CC50) in the series on Vero was determined as 8 µg/mL (≈ 44.9 µM). The “Selectivity Index” value in series [4] is recorded as 1.6.
